Test results taken from US20220111044A1, “WHOLE CELL TUMOR VACCINES AND METHODS OF USE THEROF” (CHILDREN'S NATIONAL MEDICAL CENTER, priority 2019, published 2022).

Tests used:
[1] = tested on: PD-L1 on Neuro2a and AgN2a cells; experiment: PD-L1 surface expression after IFNγ stimulation, mouse neuroblastoma cell lines (flow cytometry); type: cell-based
From the text: (§1) The expression of PD-L1 on human neuroblastoma cell lines SY5Y and SK-N-SH (non-NMYC amplified) had similar changes with exposure to IFNγ. […] Representative tumors were dissected from naïve mice (I, V, IX, and XIII) and from mice after receipt of Id2kd vaccine (II, VI, X, and XIV), Id2kd plus PD-L1 antibody (III, VII, XI, and XV), and Id2kd plus CTLA-4 antibody (IV, VIII, XII, and XVI). Hematoxylin and eosin (H&E) staining (I±VIII) and immunofluorescence double staining (IX-XVI) for CD3 and PD-L1 were performed. The nuclei were stained with 4′,6-diamidino-2-phenylindole (DAPI). Representative micrographs from each cohort are shown. Areas of necrotic tissues are marked with black broken lines and coincide with areas of inflammatory cell infiltrates. […]
(§2) FIGS. 5A and 5B show PD-L1 is expressed at 3.7-fold-lower levels on aggressive mouse neuroblastoma cell line AgN2a, as evidenced by flow cytometry (FIG. 5A) and real-time quantitative PCR (RT-qPCR) (p<0.005, Student t test; FIG. 5B). […]
Cells from mouse tumor digests and mouse splenocytes were stained with the fluorescently conjugated antibodies described above. […] Data were analyzed using the FlowJo program (Treestar, Ashland, Oreg.). […]
(§3) A possible explanation may be the differential constitutive expression of PD-L1 by tumor cells. […] The response of PD-L1 expression to IFNγ stimulation was also determined.

[2] = tested on: PD-L1 on SK-N-SH, SH-SY5Y and IMR-32 cells; experiment: PD-L1 expression after IFNγ stimulation, human neuroblastoma cell lines; type: cell-based
From the text: as §1, with “infiltrates. Panel 1 (I-IV) and panel 3 (IX-XII) are 40× and 100× original magnification, respectively.” for “infiltrates.”
as §2, §3

ApoE = experiment: IFNγ ELISA of splenocytes cocultured with Myc-suppressed irradiated B16 cells with ApoE agonist or anti-ApoE antibody; type: cell-based, mouse
Method: IFNγ was measured at 48 hours of culture (pg/ml). S: splenocytes; NS: naïve splenocytes; VS: vaccinated splenocytes; S1S: splenocytes dissected from survivor mouse; Treated: B16 cells expose to 0.25 μM BET/0.25 μM JQ1 for 4 days.
IFNγ production was quantified by ELISA at 48 hours.

Row | Substance | PD-L1 up-regulation ([1]; AgN2a, highest concentrations tested) | PD-L1 surface expression ([1]; Neuro2a, 24 hours of stimulation) | PD-L1 up-regulation ([2]; MYCN-amplified IMR-32, highest concentrations tested) | PD-L1 expression ([2]; SK-N-SH and SH-SY5Y (non-MYCN amplified), increasing doses) | IFNγ production, fold reduction (ApoE; 0.3, 3 and 9 μM, 48 hours, ELISA, FIG. 10A) | IFNγ secretion from splenocytes (ApoE; 48 hours of culture, FIGS. 10A and 10B) | TNFα and Rantes production (ApoE; co-culture with vaccinated splenocytes)
1 | IFNγ | failed to up-regulate PD-L1 | increase in a dose-dependent manner | failed to up-regulate PD-L1 | rises markedly |  |  | 
2 | LRVRLASHLRKLRKRLL (SEQ ID NO: 1) (COG133) [ApoE agonist peptide fragment] |  |  |  |  | 6 fold reduction | significantly suppressed in a dose dependent manner | repressed
